Measurements published in ChEMBL document CHEMBL3861967, “Cyclopeptide Alkaloids from Hymenocardia acida” (J Nat Prod, 2016).

Columns and labels:
[1] = Cytotoxicity against human MRC5 cells assessed as decrease in cell viability after 7 days by MTT assay; format: toxicity, cell-based
Plasmodium falciparum = test: Antiplasmodial activity against chloroquine-resistant Plasmodium falciparum K1 infected in human erythrocytes assessed as reduction in parasitemia after 72 hrs by lactate dehydrogenase assay; format: functional, cell-based; settings: K1, 72 h

| Compound | IC50 at 7 days [1] [µM] | IC50 (Plasmodium falciparum) [µM] |
| --- | --- | --- |
| CCC(C)[C@@H](C(=O)N[C@H](C(=O)N[C@@H]1C(=O)N[C@@H](Cc2c[nH]c3ccccc23)C(=O)NCC(=O)c2ccc(cc2)OC1(C)C)C(C)C)[N+](C)(C)[O-] (stereo partly drawn) | > 64 | 12.2 |
| CCC(C)[C@H](NC(=O)[C@H](C(C)CC)N(C)C)C(=O)N[C@@H]1C(=O)N[C@@H](Cc2c[nH]cn2)C(=O)NCC(=O)c2ccc(cc2)O[C@H]1C(C)C (stereo partly drawn) | > 64 | 27.9 |
| CCC(C)[C@@H](C(=O)N[C@H](C(=O)N[C@@H]1C(=O)N[C@@H](Cc2c[nH]c3ccccc23)C(=O)NCC(O)c2ccc(cc2)OC1(C)C)C(C)C)N(C)C (stereo partly drawn) | > 64 | 17.5 |
| CCC(C)[C@@H](C(=O)N[C@H](C(=O)N[C@@H]1C(=O)N[C@@H](Cc2c[nH]c3ccccc23)C(=O)NCC(=O)c2ccc(cc2)OC1(C)C)C(C)C)N(C)C (stereo partly drawn) | 51.1 | 16.4 |
